Measurements reported in article PMC11702208 (RSC Advances, 2025).

Key:
CCRF-CEM = assay: NCI cytotoxicity screen; format: cell-based, human; conditions: 10.0 μM one dose
RPMI-8226 = assay: NCI cytotoxicity screen; format: cell-based, human; conditions: 10.0 μM one dose
SR = assay: NCI cytotoxicity screen; format: cell-based, human; conditions: 10.0 μM one dose
A549/ATCC = assay: NCI cytotoxicity screen; format: cell-based, human; conditions: 10.0 μM one dose; A549/ATCC
HOP-62 = assay: NCI cytotoxicity screen; format: cell-based, human; conditions: 10.0 μM one dose
NCI-H226 = assay: NCI cytotoxicity screen; format: cell-based, human; conditions: 10.0 μM one dose
COLO 205 = assay: NCI cytotoxicity screen; format: cell-based, human; conditions: 10.0 μM one dose; COLO-205
HCC-2998 = assay: NCI cytotoxicity screen; format: cell-based, human; conditions: 10.0 μM one dose; HCC-2998
HT29 = assay: NCI cytotoxicity screen; format: cell-based, human; conditions: 10.0 μM one dose; HT-29
SF-268 = assay: NCI cytotoxicity screen; format: cell-based, human; conditions: 10.0 μM one dose
SF-539 = assay: NCI cytotoxicity screen; format: cell-based, human; conditions: 10.0 μM one dose
M14 = assay: NCI cytotoxicity screen; format: cell-based, human; conditions: 10.0 μM one dose
SK-MEL-2 = assay: NCI cytotoxicity screen; format: cell-based, human; conditions: 10.0 μM one dose
OVCAR-5 = assay: NCI cytotoxicity screen; format: cell-based, human; conditions: 10.0 μM one dose; IGROV-5
OVCAR-8 = assay: NCI cytotoxicity screen; format: cell-based, human; conditions: 10.0 μM one dose
786-0 = assay: NCI cytotoxicity screen; format: cell-based, human; conditions: 10.0 μM one dose
CAKI-1 = assay: NCI cytotoxicity screen; format: cell-based, human; conditions: 10.0 μM one dose
RXF 393 = assay: NCI cytotoxicity screen; format: cell-based, human; conditions: 10.0 μM one dose
SN12C = assay: NCI cytotoxicity screen; format: cell-based, human; conditions: 10.0 μM one dose; SN-12C
TK-10 = assay: NCI cytotoxicity screen; format: cell-based, human; conditions: 10.0 μM one dose
PC-3 = assay: NCI cytotoxicity screen; format: cell-based, human; conditions: 10.0 μM one dose
DU-145 = assay: NCI cytotoxicity screen; format: cell-based, human; conditions: 10.0 μM one dose
MCF7 = assay: NCI cytotoxicity screen; format: cell-based, human; conditions: 10.0 μM one dose; MCF-7
HS 578T = assay: NCI cytotoxicity screen; format: cell-based, human; conditions: 10.0 μM one dose; HS-578T
COX-2 = target: T1, COX-2 (Ovis aries, UniProt P79208); assay: Colorimetric COX; format: biochemical, ovine
T1 sequence (P79208 17-603): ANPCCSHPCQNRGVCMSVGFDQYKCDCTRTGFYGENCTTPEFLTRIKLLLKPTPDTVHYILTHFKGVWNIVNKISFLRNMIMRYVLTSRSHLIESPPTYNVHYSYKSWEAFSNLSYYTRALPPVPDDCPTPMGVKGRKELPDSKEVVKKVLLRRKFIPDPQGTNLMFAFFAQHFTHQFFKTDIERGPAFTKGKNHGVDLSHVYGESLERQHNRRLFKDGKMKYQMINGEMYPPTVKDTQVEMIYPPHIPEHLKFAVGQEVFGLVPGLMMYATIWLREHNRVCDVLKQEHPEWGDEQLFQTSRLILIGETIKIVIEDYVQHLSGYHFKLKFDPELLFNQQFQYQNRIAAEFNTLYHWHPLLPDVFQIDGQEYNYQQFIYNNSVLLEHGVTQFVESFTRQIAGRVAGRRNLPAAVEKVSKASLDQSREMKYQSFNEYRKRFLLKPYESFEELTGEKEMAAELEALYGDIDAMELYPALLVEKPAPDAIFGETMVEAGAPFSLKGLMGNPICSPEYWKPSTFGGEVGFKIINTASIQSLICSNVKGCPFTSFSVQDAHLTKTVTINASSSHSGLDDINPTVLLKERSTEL

EGFR = EGFR (Homo sapiens, UniProt P00533); assay: biochemical; conditions: IC50 EGFR inhibition
HER2 = HER2 (Homo sapiens, UniProt P04626); assay: HER2 tyrosine kinase assay; format: biochemical; conditions: IC50 HER2 inhibition
CDK9 = CDK9 (Homo sapiens, UniProt P50750); assay: biochemical; conditions: IC50 CDK9 inhibition
MOLT4 cells = assay: Cell cycle analysis; format: cell-based; conditions: compound at IC50 concentration
HL-60(TB) = conditions: 10.0 μM one dose
K-562 = conditions: 10.0 μM one dose

Sequence of EGFR (P00533 25-1210): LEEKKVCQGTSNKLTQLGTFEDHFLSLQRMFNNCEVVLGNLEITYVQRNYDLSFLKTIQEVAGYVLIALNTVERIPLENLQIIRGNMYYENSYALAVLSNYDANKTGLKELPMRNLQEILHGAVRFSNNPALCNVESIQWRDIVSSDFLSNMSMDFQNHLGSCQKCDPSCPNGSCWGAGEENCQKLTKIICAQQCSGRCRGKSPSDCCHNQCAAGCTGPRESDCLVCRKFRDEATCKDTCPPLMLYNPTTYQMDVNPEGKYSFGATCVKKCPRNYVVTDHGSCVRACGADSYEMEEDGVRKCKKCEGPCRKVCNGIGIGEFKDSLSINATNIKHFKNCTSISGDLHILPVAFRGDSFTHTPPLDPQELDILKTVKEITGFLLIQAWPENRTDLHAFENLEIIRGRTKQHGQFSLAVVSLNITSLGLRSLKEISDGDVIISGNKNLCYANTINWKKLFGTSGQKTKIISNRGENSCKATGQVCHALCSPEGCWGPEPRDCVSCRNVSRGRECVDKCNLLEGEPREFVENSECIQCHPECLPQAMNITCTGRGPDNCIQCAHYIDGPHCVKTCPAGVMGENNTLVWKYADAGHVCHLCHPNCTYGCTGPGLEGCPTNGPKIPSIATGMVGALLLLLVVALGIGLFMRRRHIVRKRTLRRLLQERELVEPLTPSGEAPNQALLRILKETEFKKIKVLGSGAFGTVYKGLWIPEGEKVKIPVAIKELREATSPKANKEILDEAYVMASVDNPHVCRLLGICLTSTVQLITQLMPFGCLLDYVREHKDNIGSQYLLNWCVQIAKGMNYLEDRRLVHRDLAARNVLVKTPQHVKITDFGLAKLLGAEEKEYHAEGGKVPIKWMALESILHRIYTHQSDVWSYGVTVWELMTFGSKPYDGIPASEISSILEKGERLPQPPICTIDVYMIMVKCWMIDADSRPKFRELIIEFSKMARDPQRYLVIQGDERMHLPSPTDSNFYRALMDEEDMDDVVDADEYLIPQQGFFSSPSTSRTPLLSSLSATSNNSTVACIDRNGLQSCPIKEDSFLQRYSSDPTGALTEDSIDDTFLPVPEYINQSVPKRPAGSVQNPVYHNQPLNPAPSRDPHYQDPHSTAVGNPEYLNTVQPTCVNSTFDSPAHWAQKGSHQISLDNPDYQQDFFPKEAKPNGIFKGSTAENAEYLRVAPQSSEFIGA
Sequence of CDK9 (P50750 whole entry): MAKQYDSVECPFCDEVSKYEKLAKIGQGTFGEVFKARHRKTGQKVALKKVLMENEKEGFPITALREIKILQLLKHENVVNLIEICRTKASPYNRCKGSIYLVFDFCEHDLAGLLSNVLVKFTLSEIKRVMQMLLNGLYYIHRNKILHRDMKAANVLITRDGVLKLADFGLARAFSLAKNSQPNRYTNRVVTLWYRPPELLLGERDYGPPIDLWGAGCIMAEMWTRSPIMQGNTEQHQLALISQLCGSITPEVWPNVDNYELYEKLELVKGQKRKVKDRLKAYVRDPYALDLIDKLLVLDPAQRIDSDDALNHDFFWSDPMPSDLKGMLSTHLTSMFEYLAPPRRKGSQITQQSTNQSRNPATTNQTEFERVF
Sequence of CDK9 (O60563 whole entry partner): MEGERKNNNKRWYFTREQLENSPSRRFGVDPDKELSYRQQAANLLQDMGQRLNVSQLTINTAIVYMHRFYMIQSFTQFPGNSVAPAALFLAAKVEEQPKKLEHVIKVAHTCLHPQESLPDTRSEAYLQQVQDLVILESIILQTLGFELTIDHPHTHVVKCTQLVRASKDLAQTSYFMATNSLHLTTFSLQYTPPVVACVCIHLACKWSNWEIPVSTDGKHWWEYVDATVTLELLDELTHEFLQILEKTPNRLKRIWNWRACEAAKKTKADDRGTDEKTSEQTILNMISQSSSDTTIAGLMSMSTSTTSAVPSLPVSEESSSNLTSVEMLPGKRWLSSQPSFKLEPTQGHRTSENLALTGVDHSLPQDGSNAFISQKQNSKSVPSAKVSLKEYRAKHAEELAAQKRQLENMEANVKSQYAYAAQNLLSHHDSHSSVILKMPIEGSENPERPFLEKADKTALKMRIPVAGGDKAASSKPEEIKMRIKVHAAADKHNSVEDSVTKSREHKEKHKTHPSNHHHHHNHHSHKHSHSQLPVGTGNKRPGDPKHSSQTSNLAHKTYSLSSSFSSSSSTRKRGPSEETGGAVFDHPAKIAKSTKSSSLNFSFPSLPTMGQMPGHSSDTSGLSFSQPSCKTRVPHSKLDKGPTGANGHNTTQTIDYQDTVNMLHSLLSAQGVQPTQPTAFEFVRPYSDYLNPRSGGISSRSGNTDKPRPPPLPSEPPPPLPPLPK
Sequence of HER2 (P04626 23-1255): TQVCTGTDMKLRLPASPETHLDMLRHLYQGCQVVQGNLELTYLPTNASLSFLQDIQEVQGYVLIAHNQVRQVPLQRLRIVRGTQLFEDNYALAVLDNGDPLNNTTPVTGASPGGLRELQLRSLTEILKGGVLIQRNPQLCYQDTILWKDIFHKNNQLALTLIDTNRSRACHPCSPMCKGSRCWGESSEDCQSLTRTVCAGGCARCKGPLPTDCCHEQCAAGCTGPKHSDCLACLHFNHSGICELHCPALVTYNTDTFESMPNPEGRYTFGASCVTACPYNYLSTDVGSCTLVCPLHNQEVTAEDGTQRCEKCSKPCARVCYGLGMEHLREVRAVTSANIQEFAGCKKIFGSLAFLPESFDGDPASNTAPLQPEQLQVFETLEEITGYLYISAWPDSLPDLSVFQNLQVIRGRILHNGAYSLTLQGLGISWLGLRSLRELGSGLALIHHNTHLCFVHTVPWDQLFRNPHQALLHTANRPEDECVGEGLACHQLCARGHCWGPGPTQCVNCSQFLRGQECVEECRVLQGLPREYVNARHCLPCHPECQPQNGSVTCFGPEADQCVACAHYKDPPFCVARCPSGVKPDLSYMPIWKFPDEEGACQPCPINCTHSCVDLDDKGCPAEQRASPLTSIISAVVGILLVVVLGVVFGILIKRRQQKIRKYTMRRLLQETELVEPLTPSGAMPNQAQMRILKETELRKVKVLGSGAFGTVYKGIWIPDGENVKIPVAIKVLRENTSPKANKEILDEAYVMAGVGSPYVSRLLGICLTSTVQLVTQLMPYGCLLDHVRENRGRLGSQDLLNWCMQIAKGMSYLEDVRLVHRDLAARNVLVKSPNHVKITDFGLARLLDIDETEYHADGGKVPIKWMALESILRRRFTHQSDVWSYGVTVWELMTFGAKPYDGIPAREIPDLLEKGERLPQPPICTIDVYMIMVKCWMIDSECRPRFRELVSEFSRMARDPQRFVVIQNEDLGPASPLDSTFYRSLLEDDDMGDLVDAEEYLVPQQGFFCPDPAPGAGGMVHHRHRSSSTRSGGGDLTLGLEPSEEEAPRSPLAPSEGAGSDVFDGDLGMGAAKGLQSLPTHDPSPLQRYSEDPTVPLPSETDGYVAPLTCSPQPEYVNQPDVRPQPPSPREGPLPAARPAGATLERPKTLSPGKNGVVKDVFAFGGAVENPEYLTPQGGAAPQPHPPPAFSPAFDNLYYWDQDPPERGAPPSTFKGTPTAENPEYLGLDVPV

SMILES: NS(=O)(=O)c1ccc(Cn2c(SCC(=O)NN=Cc3ccccc3O)nc3ccccc3c2=O)cc1 [Compound 6, 4-((2-((2-(2-(2-Hydroxybenzylidene)hydrazineyl)-2-oxoethyl)thio)-4-oxoquinazolin-3(4H)-yl)methyl)benzenesulfonamide]
- GI % (CCRF-CEM): 77%
- GI % (RPMI-8226): 51%
- GI % (SR): 76%
- GI % (A549/ATCC): 31%
- GI % (HOP-62): 65%
- GI % (NCI-H226): 43%
- GI % (COLO 205): 71%
- GI % (HCC-2998): 50%
- GI % (HT29): 14%
- GI % (SF-268): 62%
- GI % (SF-539): 46%
- GI % (M14): 58%
- GI % (SK-MEL-2): 64%
- GI % (OVCAR-5): 32%
- GI % (OVCAR-8): 56%
- GI % (786-0): 29%
- GI % (CAKI-1): 46%
- GI % (RXF 393): 28%
- GI % (SN12C): 44%
- GI % (TK-10): 47%
- GI % (PC-3): 33%
- GI % (DU-145): 28%
- GI % (MCF7): 50%
- GI % (HS 578T): 29%
- IC50 (COX-2): 4470 ± 90 nM
- IC50 (EGFR): 51.5 nM
- IC50 (HER2): 44.1 nM
- IC50 (CDK9): 96.1 nM
- %G0-G1 (MOLT4 cells): 89.04%
- %G2-M (MOLT4 cells): 1.40%
- GI % (HL-60(TB)): 60%
- GI % (K-562): 64%
